Reference: patent publication US20250304537A1 (Repare Therapeutics Inc., priority 2022, published 2025)
Read-outs that look alike come from different tables or passages of the source.

How the values were obtained:
[1] = molecular target: recombinant human Myt1 (full length PKMYT1) (Homo sapiens (Human), UniProt Q99640); assay: Recombinant human Myt1 kinase assay (ADP-Glo); format: biochemical; settings: 10 μM ATP
Outline: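 Full-length insect-cell-expressed human Myt1 (18 nM final) was preincubated with compound (0.5% DMSO) for 15 min at 22 °C. The reaction ran with 10 μM ATP for 60 min at 30 °C in HEPES buffer with Mg2+/Mn2+ and DTT. ADP formed was read by ADP-Glo luminescence, giving IC50 and % max inhibition.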

[2] = system: PKMYT1 (CDK1 pThr14) in FUOV1 cells; assay: PKMYT1 cell-based activity assay, CDK1 pThr14 AlphaLISA in FUOV1 cells; settings: read-out: FUOV-1 CDK1 pThr14 IC50
Outline: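 FUOV1 cells were treated with PKMYT1 inhibitor for 2 h at 37 °C, then lysed. CDK1 pThr14 was measured by AlphaLISA, pairing an anti-pThr14 antibody with an anti-total CDK1 antibody (5 nM each). Signal read at 680/615 nm and used to derive IC50.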

Chain of recombinant human Myt1 (full length PKMYT1) (Q99640 whole entry): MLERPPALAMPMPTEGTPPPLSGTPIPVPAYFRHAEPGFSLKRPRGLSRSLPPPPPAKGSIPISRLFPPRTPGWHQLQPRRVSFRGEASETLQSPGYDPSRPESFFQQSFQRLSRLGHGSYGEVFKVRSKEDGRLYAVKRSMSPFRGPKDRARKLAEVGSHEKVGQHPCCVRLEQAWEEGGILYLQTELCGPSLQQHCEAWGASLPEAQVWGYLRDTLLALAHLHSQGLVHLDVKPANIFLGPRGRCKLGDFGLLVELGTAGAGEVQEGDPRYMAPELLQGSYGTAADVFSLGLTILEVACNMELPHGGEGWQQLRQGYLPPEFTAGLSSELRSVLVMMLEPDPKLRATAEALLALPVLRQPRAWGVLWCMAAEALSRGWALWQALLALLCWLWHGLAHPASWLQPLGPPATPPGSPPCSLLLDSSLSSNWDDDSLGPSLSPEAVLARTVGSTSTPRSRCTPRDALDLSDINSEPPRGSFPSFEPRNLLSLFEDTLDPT

SMILES	IC50 [1] [µM]	other results
Cc1cccc(-c2nc(C(N)=O)c(N)c(-c3c(C)ccc4[nH]ncc34)n2)c1NC(=O)C1(C)CC1 [Compound 440]	0.013	IC50 ([2]; 2 h, 2 h compound incubation): 0.523 µM
Cc1ccc2[nH]ncc2c1-c1nc(-c2cn(C)nc2NC(C)C)nc(C(N)=O)c1N [Compound 904]	0.004	IC50 ([2]; 2 h, 2 hours with compound): 0.147 µM
COC(C)(C)C(=O)Nc1ccccc1-c1nc(C(N)=O)c(N)c(-c2c(C)ccc3[nH]ncc23)n1 [Compound 420]	0.007	IC50 ([2]; 2 h, 2 h compound incubation): 0.065 µM
Cc1ccc2[nH]ncc2c1-c1nc(-c2cc(F)c(F)cc2NC(=O)C2(C(F)(F)F)CC2)nc(C(N)=O)c1N [Compound 471]	0.016	IC50 ([2]; 2 h, 2 h compound incubation): 0.261 µM
Cc1ccc2[nH]ncc2c1-c1cc(-c2ccnc(OC3CCCC3)n2)nc(C(N)=O)c1N [Compound 170]	0.023	IC50 ([2]; 2 h, 2 h incubation): 1.1 µM
Cc1ccc2[nH]ncc2c1-c1nc(-c2ccccc2NC(=O)C2CCOCC2)nc(C(N)=O)c1N [Compound 424]	0.004	IC50 ([2]; 2 h, 2 h compound incubation): 0.081 µM
COCC(Oc1nccc(-c2cc(-c3c(C)ccc4[nH]ncc34)c(N)c(C(N)=O)n2)n1)c1ccccc1 (centres unmarked) [Compound 206]	0.008	IC50 ([2]; 2 h, 2 h incubation): 0.554 µM
Cc1ccc2[nH]ncc2c1-c1nc(-c2ccccc2NC(=O)C2(C3CC3)CC2)nc(C(N)=O)c1N [Compound 478]	0.006	IC50 ([2]; 2 h, 2 h compound incubation): 0.08 µM
Cc1ccc2[nH]ncc2c1-c1nc(-c2ccccc2NC2CCC(F)(F)CC2)nc(C(N)=O)c1N [Compound 453]	0.012	IC50 ([2]; 2 h, 2 h compound incubation): 0.317 µM
Cc1ccc2[nH]ncc2c1-c1nc(-c2ccccc2NC(=O)C2(C)CC2)nc(C(N)=O)c1N [Compound 401]	0.005	IC50 ([2]; 2 h, 2 h compound incubation): 0.004 µM
Cc1ccc2[nH]ncc2c1-c1nc(-c2ccc3c(c2)OCO3)nc(C(N)=O)c1N [Compound 297]	0.009	IC50 ([2]; 2 h, 2 h incubation): 0.422 µM
Cc1ccc2[nH]ncc2c1-c1nc(-c2ccccc2NC(=O)[C@@]2(C)CCCN2)nc(C(N)=O)c1N [Compound 431]	0.008	IC50 ([2]; 2 h, 2 h compound incubation): 0.005 µM
Cc1ccc2[nH]ncc2c1-c1nc(-c2cc(F)cnc2N[C@H]2CC[C@@](O)(C(F)(F)F)CC2)nc(C(N)=O)c1N [Compound 834]	0.021	IC50 ([2]; 2 h, 2 hours with compound): 0.49 µM
Cc1ccc2[nH]ncc2c1-c1nc(-c2ccccc2NC(C)C(F)(F)F)nc(C(N)=O)c1N (centres unmarked) [Compound 381, 5-amino-6-(5-methyl-1H-indazol-4-yl)-2-(2-((1,1,1-trifluoropropan-2-yl)amino)phenyl)pyrimidine-4-carboxamide]	0.011	IC50 ([2]; 2 h, 2 h incubation): 0.013 µM
Cc1ccc2[nH]ncc2c1-c1cc(-c2ccnc(OCc3noc(C4CCCC4)n3)n2)nc(C(N)=O)c1N [Compound 300]	0.1	
COc1ccccc1COc1cccc(-c2cc(-c3c(C)ccc4[nH]ncc34)c(N)c(C(N)=O)n2)n1 [Compound 181]	0.103	
Cc1ccc2[nH]ncc2c1-c1cc(-c2ccnc(N3CCC(O)(c4ccccc4)CC3)n2)nc(C(N)=O)c1N [Compound 349]	0.138	
Cc1ccc2[nH]ncc2c1-c1nc(-c2ccc(C3(C#N)CC3)cc2)nc(C(N)=O)c1N [Compound 125]	0.051	
Cc1ccc2[nH]ncc2c1-c1nc(-c2cccc(Oc3ccc(F)cc3)c2)nc(C(N)=O)c1N [Compound 287]	0.062	
Cc1ccc2[nH]ncc2c1-c1cc(-c2ccnc(OCCN(C)C(=O)OC(C)(C)C)n2)nc(C(N)=O)c1N [Compound 209]	0.073	
Cc1ccc2[nH]ncc2c1-c1cc(-c2cccc(OCc3c(F)c(F)c(F)c(F)c3F)n2)nc(C(N)=O)c1N [Compound 258]	> 2	
Cc1cc(-c2nc(C(N)=O)c(N)c(-c3c(C)ccc4[nH]ncc34)n2)ccc1C#N [Compound 151]	0.027	
Cc1ccc2[nH]ncc2c1-c1nc(-c2cccc(N3CCCC3)c2)nc(C(N)=O)c1N [Compound 142]	0.054	
Cc1ccc2[nH]ncc2c1-c1cc(-c2ccnc(OCCc3ccncn3)n2)nc(C(N)=O)c1N [Compound 311]	> 2	
COc1ccc(COc2cccc(-c3cc(-c4c(C)ccc5[nH]ncc45)c(N)c(C(N)=O)n3)n2)cc1 [Compound 339]	1.16	

The next lines start with results.

IC50 [1] [µM]	SMILES	other results
0.028	Cc1ccc(O)cc1-c1nc(-c2ccc(Cl)cc2)nc(C(N)=O)c1N [Compound 18]	IC50 ([2]; 2 h, 2 h incubation): 3.53 µM
0.011	Cc1ccc(O)c(C)c1-c1cc(-c2cccc(C(F)(F)F)n2)nc(C(N)=O)c1N [Compound 60]	IC50 ([2]; 2 h, 2 h incubation): 1.82 µM
0.004	Cc1ccc2[nH]ncc2c1-c1nc(-c2cccnc2N[C@@H]2CCO[C@@H](C)C2)nc(C(N)=O)c1N [Compound 605]	IC50 ([2]; 2 h, 2 h compound incubation): 0.283 µM
0.003	Cc1ccc(O)c(C)c1-c1nc(-c2ccccc2NC(=O)C2(C)CC2)cc(C(N)=O)c1N [Compound 428]	IC50 ([2]; 2 h, 2 h compound incubation): 0.026 µM
0.027	Cc1ccc2[nH]ncc2c1-c1c(N)c(C(N)=O)cc2c1oc1ccccc12 [Compound 418, 3-amino-4-(5-methyl-1H-indazol-4-yl)dibenzo[b,d]furan-2-carboxamide]	IC50 ([2]; 2 h, 2 h compound incubation): 1.33 µM
0.002	Cc1ccc(O)c(C)c1-c1cc(-c2cc(C(F)(F)F)ccn2)nc(C(N)=O)c1N [Compound 67]	IC50 ([2]; 2 h, 2 h incubation): 0.272 µM
0.006	Cc1cccc(-c2cc(-c3c(C)ccc(O)c3C)c(N)c(C(N)=O)n2)n1 [Compound 83]	IC50 ([2]; 2 h, 2 h incubation): 0.188 µM
0.004	COc1ccc(-c2cc(-c3c(C)ccc(O)c3C)c(N)c(C(N)=O)n2)nc1 [Compound 59]	IC50 ([2]; 2 h, 2 h incubation): 0.059 µM
0.006	COC[C@@H](C)Oc1nccc(-c2cc(-c3c(C)ccc4[nH]ncc34)c(N)c(C(N)=O)n2)n1 [Compound 204]	IC50 ([2]; 2 h, 2 h incubation): 0.205 µM
0.011	COC[C@H](C)Oc1nccc(-c2cc(-c3c(C)ccc4[nH]ncc34)c(N)c(C(N)=O)n2)n1 [Compound 203]	IC50 ([2]; 2 h, 2 h incubation): 0.332 µM
0.012	Cc1ccc2[nH]ncc2c1-c1nc(-c2cccnc2N)nc(C(N)=O)c1N [Compound 469]	IC50 ([2]; 2 h, 2 h compound incubation): 0.54 µM
0.002	Cc1ccc(O)c(C)c1-c1cc(-c2ccnc(N)c2)nc(C(N)=O)c1N [Compound 45]	IC50 ([2]; 2 h incubation): 0.06 µM
0.006	CC(=O)Nc1ccccc1-c1nc(C(N)=O)c(N)c(-c2c(C)ccc3[nH]ncc23)n1 [Compound 320]	IC50 ([2]; 2 h, 2 h incubation): 0.019 µM
0.002	Cc1ccc2[nH]ncc2c1-c1nc(-c2cccnc2NC2CCOCC2C)nc(C(N)=O)c1N (centres unmarked) [Compound 606]	IC50 ([2]; 2 h, 2 h compound incubation): 0.067 µM
0.01	COCCOc1cccc(-c2cc(-c3c(C)ccc4[nH]ncc34)c(N)c(C(N)=O)n2)n1 [Compound 245]	IC50 ([2]; 2 h, 2 h incubation): 0.539 µM
0.006	Cc1ccc(O)c(C)c1-c1cc(-c2c[nH]cn2)nc(C(N)=O)c1N [Compound 43]	IC50 ([2]; 2 h, 2 h incubation): 0.336 µM
0.003	Cc1ccc2[nH]ncc2c1-c1cc(-c2ccnc(OCc3ncccn3)n2)nc(C(N)=O)c1N [Compound 251]	IC50 ([2]; 2 h incubation): 0.046 µM
0.014	Cc1ccc2[nH]ncc2c1-c1nc(-c2cccc3ccsc23)nc(C(N)=O)c1N [Compound 379]	

IC50 [1] [µM]	SMILES	other results
1.51	CCCCc1cc(-c2c(C)ccc3[nH]ncc23)c(N)c(C(N)=O)n1 [Compound 216, 3-amino-6-butyl-4-(5-methyl-1H-indazol-4-yl)picolinamide]	
0.027	Cc1ccc2[nH]ncc2c1-c1nc(-c2cccc(CNc3ncccn3)c2)nc(C(N)=O)c1N [Compound 295]	
0.018	Cc1ccnc(-c2cc(-c3c(C)ccc4[nH]ncc34)c(N)c(C(N)=O)n2)c1 [Compound 269]	
0.081	Cc1ccc(O)cc1-c1nc(-c2cnn(C)c2)nc(C(N)=O)c1N [Compound 34]	
0.107	Cc1ccc2[nH]ncc2c1-c1cc(-c2cccc(Oc3ccccn3)n2)nc(C(N)=O)c1N [Compound 202]	
> 50	Cc1ccc(O)cc1-c1cc2cccnc2c(C(N)=O)c1N [Compound 1, 7-amino-6-(5-hydroxy-2-methylphenyl)quinoline-8-carboxamide]	
0.009	Cc1ccc2[nH]ncc2c1-c1cc(-c2ccnc(OCCc3nccn3C)n2)nc(C(N)=O)c1N [Compound 264]	
0.069	Cc1ccc2[nH]ncc2c1-c1cc(-c2ccnc(O[C@H](C)c3ncccn3)n2)nc(C(N)=O)c1N (atropisomer, axis not shown) [Compound 358]	
0.09	Cc1ccc2[nH]ncc2c1-c1nc(-c2ccccn2)nc(C(N)=O)c1N [Compound 117]	
0.054	Cc1ccc2[nH]ncc2c1-c1cc(-c2cccnc2)nc(C(N)=O)c1N [Compound 97]	
1.83	Cc1ccc(O)c(C)c1-c1cc(C(=O)O)nc(C(N)=O)c1N [Compound 53, 5-amino-6-carbamoyl-4-(3-hydroxy-2,6-dimethylphenyl)picolinic acid]	
0.018	Cc1ccc2[nH]ncc2c1-c1nc(-c2cccc(C(=O)N3CCOCC3)c2)nc(C(N)=O)c1N [Compound 289]	
0.015	COc1cc(-c2nc(C(N)=O)c(N)c(-c3cc(O)ccc3C)n2)ccn1 [Compound 25]	
0.038	Cc1ccc2[nH]ncc2c1-c1nc(-c2cccc(C(=O)N(C)C)c2)nc(C(N)=O)c1N [Compound 284]	
0.074	Cc1cccc(-c2nc(C(N)=O)c(N)c(-c3cc(O)ccc3C)n2)c1 [Compound 30]	
0.015	CC(=O)Nc1cccc(-c2nc(C(N)=O)c(N)c(-c3c(C)ccc4[nH]ncc34)n2)c1 [Compound 298]	
0.008	Cc1ccc2[nH]ncc2c1-c1cc(-c2cccc(OCc3cncs3)n2)nc(C(N)=O)c1N [Compound 279]	
0.035	CCC(CC)COc1cccc(-c2cc(-c3c(C)ccc4[nH]ncc34)c(N)c(C(N)=O)n2)n1 [Compound 350]	
